Measurements as given in US20220111122A1, “COMPOSITION FOR IMPROVED BONE FRACTURE HEALING” (CORTHOTEC LTD, priority 2019, published 2022).

Assays:
[1] = system: osteoclast activity (as measured by bone resorption); experiment: zoledronate concentration versus bone resorption (FIG. 3); assay type: cell-based; details: osteoclast activity decreases significantly compared to lower concentrations
From the text: (§1) The graphs in FIGS. 3 and 4 depict the optimal concentrations of zoledronate (derived from zoledronic acid as the bisphosphonate) required to suppress bone resorption by means of a proportionate decrease in osteoclast number.

[2] = system: osteoclast number; experiment: zoledronate concentration versus osteoclast number (FIG. 4); assay type: cell-based; details: compared to lower concentrations
From the text: as §1

Question: With `O=P(O)(O)C(O)(Cn1ccnc1)P(=O)(O)O` [zoledronic acid] as the molecule, how does the “concentration of optimal efficacy to suppress bone resorption” value [1] read?
Answer: The value was “approximately 10^−6 M”.

Question: And the “concentration of optimal efficacy to decrease osteoclast number” value [2]?
Answer: The value was “approximately 10^−6 M”.
